Measurements reported in article doi:10.1101/2023.11.24.568596v1 (biorxiv, 2023).
Values belong to the compound of their own block, whether it stands above or below them.

Key:
Settings in all cases: binder
PHKG2 = target: T1, PHKG2 (Homo sapiens, UniProt P15735)
T1 sequence (P15735 1-406): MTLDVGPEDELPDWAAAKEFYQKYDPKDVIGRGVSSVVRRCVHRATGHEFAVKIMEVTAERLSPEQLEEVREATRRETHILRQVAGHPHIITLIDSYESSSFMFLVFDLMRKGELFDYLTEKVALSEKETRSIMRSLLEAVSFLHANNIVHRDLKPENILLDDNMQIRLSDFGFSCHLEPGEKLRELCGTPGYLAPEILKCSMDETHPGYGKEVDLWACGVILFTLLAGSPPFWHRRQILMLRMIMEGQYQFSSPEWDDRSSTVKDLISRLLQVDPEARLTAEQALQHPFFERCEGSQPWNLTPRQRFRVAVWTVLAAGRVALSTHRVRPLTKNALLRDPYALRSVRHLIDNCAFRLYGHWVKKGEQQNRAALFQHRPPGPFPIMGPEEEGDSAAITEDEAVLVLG

CASK = target: T2, CASK (Homo sapiens, UniProt O14936)
T2 sequence (O14936 1-926): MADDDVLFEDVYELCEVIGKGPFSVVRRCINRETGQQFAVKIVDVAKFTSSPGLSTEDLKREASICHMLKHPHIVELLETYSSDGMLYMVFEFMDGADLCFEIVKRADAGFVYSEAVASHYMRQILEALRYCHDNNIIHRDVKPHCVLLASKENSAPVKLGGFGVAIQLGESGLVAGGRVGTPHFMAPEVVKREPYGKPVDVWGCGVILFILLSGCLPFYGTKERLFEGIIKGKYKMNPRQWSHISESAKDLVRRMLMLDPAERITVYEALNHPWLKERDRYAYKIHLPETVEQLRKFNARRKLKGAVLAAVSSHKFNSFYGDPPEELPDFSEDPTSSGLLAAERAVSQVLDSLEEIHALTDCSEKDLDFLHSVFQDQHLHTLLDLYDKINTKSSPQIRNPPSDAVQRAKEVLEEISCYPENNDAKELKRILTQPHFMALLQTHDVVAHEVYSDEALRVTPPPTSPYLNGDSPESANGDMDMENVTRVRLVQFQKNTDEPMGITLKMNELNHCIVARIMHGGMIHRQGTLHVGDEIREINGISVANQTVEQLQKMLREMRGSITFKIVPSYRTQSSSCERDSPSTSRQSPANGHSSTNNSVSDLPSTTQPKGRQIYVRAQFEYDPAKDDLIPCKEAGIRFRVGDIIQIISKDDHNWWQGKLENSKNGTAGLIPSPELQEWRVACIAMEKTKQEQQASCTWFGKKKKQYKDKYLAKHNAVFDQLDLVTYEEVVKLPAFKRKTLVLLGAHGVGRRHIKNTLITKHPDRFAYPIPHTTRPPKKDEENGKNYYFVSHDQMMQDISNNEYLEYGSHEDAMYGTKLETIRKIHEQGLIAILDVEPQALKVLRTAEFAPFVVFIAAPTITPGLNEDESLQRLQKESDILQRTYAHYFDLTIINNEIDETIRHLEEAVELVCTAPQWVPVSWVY

EphA2 = EphA2 (Homo sapiens, UniProt P29317)
Sequence of EphA2 (P29317 whole entry): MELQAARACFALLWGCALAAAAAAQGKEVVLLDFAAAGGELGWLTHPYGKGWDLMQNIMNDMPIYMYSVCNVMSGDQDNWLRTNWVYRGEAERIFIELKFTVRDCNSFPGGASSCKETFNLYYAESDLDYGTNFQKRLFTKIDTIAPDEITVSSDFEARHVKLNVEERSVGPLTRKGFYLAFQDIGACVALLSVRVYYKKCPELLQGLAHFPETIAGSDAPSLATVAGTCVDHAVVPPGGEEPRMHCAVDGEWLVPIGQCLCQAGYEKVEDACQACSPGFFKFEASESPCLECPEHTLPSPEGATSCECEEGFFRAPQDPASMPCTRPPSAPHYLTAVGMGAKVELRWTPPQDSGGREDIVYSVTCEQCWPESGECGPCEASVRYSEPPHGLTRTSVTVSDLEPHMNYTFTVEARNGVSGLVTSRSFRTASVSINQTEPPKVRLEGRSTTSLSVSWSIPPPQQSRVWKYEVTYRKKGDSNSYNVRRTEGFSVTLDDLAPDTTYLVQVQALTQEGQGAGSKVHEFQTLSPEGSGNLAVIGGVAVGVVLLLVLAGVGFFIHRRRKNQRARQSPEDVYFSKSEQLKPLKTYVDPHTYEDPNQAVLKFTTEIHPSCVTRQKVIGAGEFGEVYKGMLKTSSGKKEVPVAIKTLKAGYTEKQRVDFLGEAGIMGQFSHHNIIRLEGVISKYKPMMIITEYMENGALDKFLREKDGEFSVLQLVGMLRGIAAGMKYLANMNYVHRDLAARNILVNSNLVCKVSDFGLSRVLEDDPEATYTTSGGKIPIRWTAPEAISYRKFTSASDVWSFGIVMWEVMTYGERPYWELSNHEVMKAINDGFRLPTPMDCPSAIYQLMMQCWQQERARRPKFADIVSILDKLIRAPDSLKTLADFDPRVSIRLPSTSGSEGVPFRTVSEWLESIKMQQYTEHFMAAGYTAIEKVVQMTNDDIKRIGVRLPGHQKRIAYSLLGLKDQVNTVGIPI

BMPR2 = target: T3, BMPR2 (Homo sapiens, UniProt Q13873)
T3 sequence (Q13873 1-1038): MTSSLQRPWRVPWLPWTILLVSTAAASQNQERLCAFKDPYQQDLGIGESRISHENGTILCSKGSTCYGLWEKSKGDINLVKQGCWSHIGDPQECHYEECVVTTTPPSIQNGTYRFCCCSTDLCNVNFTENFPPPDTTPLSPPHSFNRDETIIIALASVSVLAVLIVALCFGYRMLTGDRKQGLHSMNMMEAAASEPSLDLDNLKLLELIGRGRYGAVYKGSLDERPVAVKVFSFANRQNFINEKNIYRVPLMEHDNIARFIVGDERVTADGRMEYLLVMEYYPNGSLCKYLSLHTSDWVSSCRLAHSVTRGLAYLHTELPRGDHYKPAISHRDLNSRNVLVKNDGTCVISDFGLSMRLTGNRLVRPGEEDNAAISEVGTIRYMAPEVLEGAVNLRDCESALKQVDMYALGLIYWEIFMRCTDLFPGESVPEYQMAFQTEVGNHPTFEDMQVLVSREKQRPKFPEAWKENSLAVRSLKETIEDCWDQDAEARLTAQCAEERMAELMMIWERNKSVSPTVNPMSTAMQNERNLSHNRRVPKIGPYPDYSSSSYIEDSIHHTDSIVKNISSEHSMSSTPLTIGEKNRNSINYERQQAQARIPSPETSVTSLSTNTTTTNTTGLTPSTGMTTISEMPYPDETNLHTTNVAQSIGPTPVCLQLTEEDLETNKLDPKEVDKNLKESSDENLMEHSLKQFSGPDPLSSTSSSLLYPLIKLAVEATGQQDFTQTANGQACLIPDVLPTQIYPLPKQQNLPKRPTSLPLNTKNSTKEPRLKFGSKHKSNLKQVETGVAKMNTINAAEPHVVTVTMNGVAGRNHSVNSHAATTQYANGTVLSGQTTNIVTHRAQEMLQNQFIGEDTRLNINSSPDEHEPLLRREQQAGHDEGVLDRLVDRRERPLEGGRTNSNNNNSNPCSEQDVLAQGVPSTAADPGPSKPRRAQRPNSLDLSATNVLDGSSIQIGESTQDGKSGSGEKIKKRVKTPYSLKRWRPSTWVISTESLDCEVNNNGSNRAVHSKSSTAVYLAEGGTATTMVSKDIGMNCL

CK1e = CK1e (Homo sapiens, UniProt P49674)
Sequence of CK1e (P49674 whole entry): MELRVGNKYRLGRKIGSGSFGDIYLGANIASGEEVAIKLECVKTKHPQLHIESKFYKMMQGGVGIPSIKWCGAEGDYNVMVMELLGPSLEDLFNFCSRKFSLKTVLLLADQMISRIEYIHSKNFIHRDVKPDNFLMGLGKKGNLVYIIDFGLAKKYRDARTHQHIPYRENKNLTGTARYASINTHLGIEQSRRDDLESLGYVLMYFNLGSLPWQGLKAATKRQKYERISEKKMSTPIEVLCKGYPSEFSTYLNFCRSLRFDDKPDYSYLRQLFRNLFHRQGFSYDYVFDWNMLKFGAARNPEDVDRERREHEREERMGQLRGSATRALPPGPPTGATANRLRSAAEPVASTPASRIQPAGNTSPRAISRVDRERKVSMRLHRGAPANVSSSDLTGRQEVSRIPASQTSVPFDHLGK

SMILES: Cc1cccc(-c2ccc(-c3cc4cnc(NCCCN5CCNCC5)nc4n(CCCCN)c3=O)c(Cl)c2)n1 [compound 29, 8-(4-Aminobutyl)-6-(2-chloro-4-(6-methylpyridin-2-yl)phenyl)-2-((3-(piperazin-1-yl)propyl)amino)pyrido[2,3-d]pyrimidin-7(8H)-one]
ΔTm 29 (PHKG2): 2.2 °C
ΔTm 29 (CASK): -0.5 °C
ΔTm 29 (EphA2): 5.1 °C
ΔTm 29 (BMPR2): 0.0 °C
ΔTm 29 (CK1e): 5.8 °C

SMILES: Cc1cccc(-c2ccc(-c3cc4cnc(NCCCN5CCCC5=O)nc4n(CCCCN)c3=O)c(Cl)c2)n1 [compound 27, MR30]
ΔTm MR30 (27) (PHKG2): 1.2 °C
ΔTm MR30 (27) (CASK): -0.3 °C
ΔTm MR30 (27) (EphA2): 3.6 °C
ΔTm MR30 (27) (BMPR2): -0.1 °C
ΔTm MR30 (27) (CK1e): 6.4 °C

SMILES: Cc1cccc(-c2ccc(-c3cc4cnc(Nc5ccc(CCCO)cc5)nc4n(CCCCN)c3=O)c(Cl)c2)n1 [compound 30, 8-(4-Aminobutyl)-6-(2-chloro-4-(6-methylpyridin-2-yl)phenyl)-2-((4-(3-hydroxypropyl)phenyl)amino)pyrido[2,3-d]pyrimidin-7(8H)-one]
ΔTm 30 (PHKG2): 6.7 °C
ΔTm 30 (CASK): -0.5 °C
ΔTm 30 (EphA2): 7.7 °C
ΔTm 30 (BMPR2): -0.2 °C
ΔTm 30 (CK1e): 8.2 °C

Other lines, results leading:

ΔTm 31 (PHKG2): 6.4 °C
ΔTm 31 (CASK): -0.2 °C
ΔTm 31 (EphA2): 8.1 °C
ΔTm 31 (BMPR2): 1.0 °C
ΔTm 31 (CK1e): 7.5 °C
SMILES: Cc1cccc(-c2ccc(-c3cc4cnc(Nc5ccc(O)cc5)nc4n(CCCCN)c3=O)c(Cl)c2)n1 [compound 31, 8-(4-Aminobutyl)-6-(2-chloro-4-(6-methylpyridin-2-yl)phenyl)-2-((4-hydroxyphenyl)amino) pyrido[2,3-d]pyrimidin-7(8H)-one]

ΔTm 28 (PHKG2): 2.4 °C
ΔTm 28 (CASK): 0.0 °C
ΔTm 28 (EphA2): 4.5 °C
ΔTm 28 (BMPR2): -0.1 °C
ΔTm 28 (CK1e): 4.9 °C
SMILES: Cc1cccc(-c2ccc(-c3cc4cnc(Nc5cc(C(F)(F)F)ccc5C)nc4n(CCCCN)c3=O)c(Cl)c2)n1 [compound 28, 8-(4-Aminobutyl)-6-(2-chloro-4-(6-methylpyridin-2-yl)phenyl)-2-((2-methyl-5-(trifluoromethyl)phenyl)amino)pyrido[2,3-d]pyrimidin-7(8H)-one]

ΔTm 32 (PHKG2): 6.4 °C
ΔTm 32 (CASK): 0.0 °C
ΔTm 32 (EphA2): 7.9 °C
ΔTm 32 (BMPR2): -0.4 °C
ΔTm 32 (CK1e): 7.7 °C
SMILES: Cc1cccc(-c2ccc(-c3cc4cnc(Nc5ccc(C)c(O)c5)nc4n(CCCCN)c3=O)c(Cl)c2)n1 [compound 32, 8-(4-Aminobutyl)-6-(2-chloro-4-(6-methylpyridin-2-yl)phenyl)-2-((3-hydroxy-4-methylphenyl)amino)pyrido[2,3-d]pyrimidin-7(8H)-one]
